Data on 22 compounds can be found in US20100137313A1 (ASTRAZENECA AB, priority 2008, published 2010).

This test deals with S. pneumoniae Topoisomerase IV ATPase (ParE) (Streptococcus pneumoniae serotype 4, UniProt Q59961). The test is described as follows: S. pneumoniae Topoisomerase IV ATPase inhibition. Type of test: biochemical. As to conditions: values marked * are an average of two or more data points, read-out: % Inh (13 μM) of S. pneumoniae Topoisomerase IV ATPase. In a few lines: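 Phosphate-release ATPase assay: 1.25 nM ParE, 160 μM ATP, DNA-stimulated. Quench with malachite green/molybdate in 1 M HCl, read 650 nm; IC50 from 10-point dose series.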
Sequence of S. pneumoniae Topoisomerase IV ATPase (ParE) (Q59961 whole entry): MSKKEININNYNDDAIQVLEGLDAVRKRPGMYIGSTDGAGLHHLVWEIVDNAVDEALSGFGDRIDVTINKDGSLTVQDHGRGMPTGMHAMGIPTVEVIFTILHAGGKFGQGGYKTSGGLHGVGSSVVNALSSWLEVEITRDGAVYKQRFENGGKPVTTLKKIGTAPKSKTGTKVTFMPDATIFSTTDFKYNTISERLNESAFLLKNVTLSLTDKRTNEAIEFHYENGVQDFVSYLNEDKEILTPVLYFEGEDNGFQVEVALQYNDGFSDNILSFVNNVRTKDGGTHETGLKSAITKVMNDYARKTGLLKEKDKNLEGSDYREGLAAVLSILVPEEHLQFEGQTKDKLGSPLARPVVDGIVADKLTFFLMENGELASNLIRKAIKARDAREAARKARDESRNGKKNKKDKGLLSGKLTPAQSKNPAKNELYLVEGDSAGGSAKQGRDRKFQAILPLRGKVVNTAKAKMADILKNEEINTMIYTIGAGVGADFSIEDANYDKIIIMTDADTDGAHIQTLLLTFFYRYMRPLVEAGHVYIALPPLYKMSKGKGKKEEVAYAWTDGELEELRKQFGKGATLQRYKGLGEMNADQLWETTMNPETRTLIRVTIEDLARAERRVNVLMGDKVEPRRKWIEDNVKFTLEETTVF
Turning to `COCCCNc1nc(Nc2ccc(F)c(Cl)c2)ncc1-c1nc(-c2ccccn2)c(C(=O)O)s1` [Example 511, 2-{2-[(3-chloro-4-fluorophenyl)amino]-4-[(3-methoxypropyl)amino]pyrimidin-5-yl}-4-(pyridin-2-yl)-1,3-thiazole-5-carboxylic acid], the inhibition at 13 µM was found to be 100%.
In the case of `CC1CCCN1c1nc(Nc2ccc(F)c(Cl)c2)ncc1-c1cncc(C(=O)O)c1` (stereo not shown) [Example 251, 5-[2-[(3-chloro-4-fluorophenyl)amino]-4-(2-methylpyrrolidin-1-yl)pyrimidin-5-yl]pyridine-3-carboxylic acid] it was 79.9%; in that of `Cc1cnc(CNc2nc(Nc3ccc(F)c(Cl)c3)ncc2-c2cncc(C(=O)O)c2)cn1` [Example 242, 5-[2-[(3-chloro-4-fluorophenyl)amino]-4-[(5-methylpyrazin-2-yl)methylamino]pyrimidin-5-yl]pyridine-3-carboxylic acid], 61.3%.
Consider `O=C(O)/C=C/c1cccc(-c2cnc(Nc3ccc(F)c(Cl)c3)nc2-n2nnc3ccccc32)c1` [Example 325, (2E)-3-(3-{4-(1H-benzotriazol-1-yl)-2-[(3-chloro-4-fluorophenyl)amino]pyrimidin-5-yl}phenyl) prop-2-enoic acid], for which the inhibition at 13 µM worked out at 102%.
In the case of `O=C(O)c1cc(-c2cnc(Nc3ccc(F)c(Cl)c3)nc2-n2ccc(C(F)(F)F)n2)cn(CCN2CCOCC2)c1=O` [Example 1075, 5-(2-(3-Chloro-4-fluorophenylamino)-4-(3-(trifluoromethyl)-1H-pyrazol-1-yl)pyrimidin-5-yl)-1-(2-morpholinoethyl)-2-oxo-1,2-dihydropyridine-3-carboxylic acid], the inhibition at 13 µM amounted to 97%.
For `CCNS(=O)(=O)c1cncc(-c2cnc(Nc3ccc(F)c(Cl)c3)nc2-n2ccc(C(F)(F)F)n2)c1` [Example 1000, 5-(2-(3-Chloro-4-fluorophenylamino)-4-(3-(trifluoromethyl)-1H-pyrazol-1-yl)pyrimidin-5-yl)-N-ethylpyridine-3-sulfonamide] the value was 64%; for `O=C(O)c1cncc(-c2cnc(Nc3ccc(F)c(Cl)c3)nc2-n2cc(-c3ccncn3)cn2)c1` [Example 536, 5-{2-[(3-chloro-4-fluorophenyl)amino]-4-[4-(pyrimidin-4-yl)-1H-pyrazol-1-yl]pyrimidin-5-yl}pyridine-3-carboxylic acid], 100%.
Turning to `O=C(O)/C=C/c1cccc(-c2cnc(Nc3ccc(F)c(Cl)c3)nc2N2CCCCC2)c1` [Example 297, (E)-3-(3-(2-(3-chloro-4-fluorophenylamino)-4-(piperidin-1-yl)pyrimidin-5-yl)phenyl)acrylic acid], the inhibition at 13 µM amounted to 128%.
Take `Fc1ccc(Nc2ncc(-c3cncnc3)c(-n3nnc4ccccc43)n2)cc1Cl` [Example 89, 4-(1H-benzotriazol-1-yl)-N-(3-chloro-4-fluorophenyl)-5,5′-bipyrimidin-2-amine]: the inhibition at 13 µM was 85.3%.
With `CCOC(=O)/C=C/c1cccc(-c2cnc(Nc3ccc(F)c(Cl)c3)nc2N2CCN(S(C)(=O)=O)CC2)c1` [Example 174, (E)-ethyl 3-(3-(2-(3-chloro-4-fluorophenylamino)-4-(4-(methylsulfonyl)piper-azin-1-yl)pyrimidin-5-yl)phenyl)acrylate], the inhibition at 13 µM was 52.1%.
For `COCCCNc1nc(Nc2ccc(F)c(Cl)c2)ncc1-c1ccc2[nH]c(C(=O)O)cc2c1` [Example 1062, 5-(2-(3-chloro-4-fluorophenylamino)-4-(3-methoxypropylamino)pyrimidin-5-yl)-1H-indole-2-carboxylic acid] the value was 91%.
With `CN1CCN(c2nc(Nc3ccc(F)c(Cl)c3)ncc2-c2cncc(C(=O)O)c2)CC1` [Example 285, 5-(2-(3-chloro-4-fluorophenylamino)-4-(4-methylpiperazin-1-yl)pyrimidin-5-yl)nicotinic acid], the inhibition at 13 µM is 61.9%.
Consider `COc1cc(Nc2ncc(-c3c[nH]c(=O)c(C(=O)O)c3)c(-n3ccc(C(F)(F)F)n3)n2)cc(OC)c1` [Example 1096, 5-(2-(3,5-Dimethoxyphenylamino)-4-(3-(trifluoromethyl)-1H-pyrazol-1-yl)pyrimidin-5-yl)-2-oxo-1,2-dihydropyridine-3-carboxylic acid], for which the inhibition at 13 µM was 100%.
Turning to `CN(C)C(=O)N1CCN(c2nc(Nc3ccc(F)c(Cl)c3)ncc2-c2cccc(/C=C/C(=O)O)c2)CC1` [Example 291, (E)-3-(3-(2-(3-chloro-4-fluorophenylamino)-4-(4-(dimethylcarbamoyl)-piperazin-1-yl)pyrimidin-5-yl)phenyl)acrylic acid], the inhibition at 13 µM is 90.1%.
For `Cc1cc(C)cc(Nc2ncc(-c3cccc(/C=C/C(=O)O)c3)c(-n3nc(C(F)(F)F)cc3C)n2)c1` [Example 618, (2E)-3-(3-{2-[(3,5-dimethylphenyl)amino]-4-[5-methyl-3-(trifluoromethyl)-1H-pyrazol-1-yl]pyrimidin-5-yl}phenyl)prop-2-enoic acid] the value was 98%.
`CCOC(=O)c1cncc(-c2cnc(Nc3ccc(F)c(Cl)c3)nc2NCCCN(C)C)c1` [Example 5, ethyl 5-(2-(3-chloro-4-fluorophenylamino)-4-(3-(dimethylamino)propylamino)pyrimidin-5-yl) nicotinate]: the inhibition at 13 µM was determined as 104%.
For `O=C(O)c1cncc(-c2cnc(Nc3ccc(F)c(Cl)c3)nc2NCc2ccco2)c1` [Example 237, 5-[2-[(3-chloro-4-fluorophenyl)amino]-4-(furan-2-ylmethylamino)pyrimidin-5-yl]pyridine-3-carboxylic acid], the inhibition at 13 µM amounted to 85.4%.
Turning to `Cc1cc(C(F)(F)F)nn1-c1nc(Nc2ccc(F)c(Cl)c2)ncc1-c1cncc(S(C)(=O)=O)c1` [Example 989, N-(3-chloro-4-fluorophenyl)-4-(5-methyl-3-(trifluoromethyl)-1H-pyrazol-1-yl)-5-(5-(methylsulfonyl)pyridin-3-yl)pyrimidin-2-amine], the inhibition at 13 µM is 100%.
As for `COCCCNc1nc(Nc2ccc(F)c(Cl)c2)ncc1-c1nc(C(=O)O)cs1` [Example 912, 2-(2-(3-chloro-4-fluorophenylamino)-4-(3-methoxypropylamino)pyrimidin-5-yl)thiazol-4-carboxylic acid], the inhibition at 13 µM came to 99%.
Take `COCCCNc1nc(Nc2ccc(F)c(Cl)c2)ncc1-c1nc(-c2ccncc2)cs1` [Example 500, N^2-(3-chloro-4-fluorophenyl)-N^4-(3-methoxypropyl)-5-[4-(pyridin-4-yl)-1,3-thiazol-2-yl]pyrimidine-2,4-diamine]: the inhibition at 13 µM came out at 83%.
On to `COCCCNc1nc(Nc2ccc(F)c(Cl)c2)ncc1-c1nc(-c2cnoc2C)cs1` [Example 503, N^2-(3-chloro-4-fluorophenyl)-N^4-(3-methoxypropyl)-5-[4-(5-methylisoxazol-4-yl)-1,3-thiazol-2-yl]pyrimidine-2,4-diamine], for which the inhibition at 13 µM came to 147%.
In the case of `CCN(CC)S(=O)(=O)c1cncc(-c2cnc(Nc3ccc(F)c(Cl)c3)nc2-n2ccc(C(F)(F)F)n2)c1` [Example 1033, 5-(2-(3-Chloro-4-fluorophenylamino)-4-(3-(trifluoromethyl)-1H-pyrazol-1-yl)pyrimidin-5-yl)-N,N-diethylpyridine-3-sulfonamide] it was 20%.
